Some test systems named below: CCRF-CEM leukemia; EKVX NSCLC; HL-60(TB) leukemia; HOP-92 NSCLC; IGROV1 ovarian; K-562 leukemia; KM12 colon; MALME-3M melanoma; MCF7 breast; NCI-H460 lung; NCI-H522 lung; NCI/ADR-RES ovarian; OVCAR-3 ovarian; OVCAR-4 ovarian; OVCAR-8 ovarian; RPMI-8226 leukemia; SF-268 CNS; SF-295 CNS; SW-620 colon; T-47D breast.
Common to all, as to assay: inhibition of tumour cell growth, NCI panel, 48 h

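Cultured in 96-well plates, cells were exposed to test compound for 48 hours across five concentrations. TGI: total growth inhibition.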

Regarding `CC(=O)O/C(=C1\C[C@H]2[C@@H]3CC=C4C[C@@H](OC(C)=O)CC[C@]4(C)[C@H]3CC[C@]2(C)C1=O)C(F)(F)F`, the TGI in the assay with CCRF-CEM leukemia came out at 13.9 µM; in the assay with EKVX NSCLC, 37.9 µM; in the assay with HL-60(TB) leukemia, 13.6 µM; in the assay on HOP-92 NSCLC, 17.7 µM; in the assay with IGROV1 ovarian, 19.8 µM; with K-562 leukemia it was 15.1 µM. Besides, the TGI in the assay on KM12 colon turned out to be 31.8 µM; in the assay with MALME-3M melanoma, 9.53 µM; with MCF7 breast, 17.8 µM; in the assay with NCI-H460 lung it was 18.3 µM; with NCI-H522 lung it was 8.99 µM; in the assay with NCI/ADR-RES ovarian, 46.6 µM. In addition, the TGI was determined as 21.2 µM with OVCAR-3 ovarian; 61.4 µM in the assay with OVCAR-4 ovarian; 16.8 µM in the assay with OVCAR-8 ovarian; 15.8 µM in the assay on RPMI-8226 leukemia; 19.9 µM in the assay on SF-268 CNS; 35.9 µM in the assay with SF-295 CNS. Further, the TGI in the assay on SW-620 colon stood at 19.8 µM; with T-47D breast, 21.2 µM.
On to `[N-]=[N+]=NC1C(O)C(CO)OC1n1ccc(=O)[nH]c1=O` (stereo not given), for which the TGI in the assay with CCRF-CEM leukemia, in the assay on EKVX NSCLC, in the assay with HL-60(TB) leukemia, with HOP-92 NSCLC, in the assay with IGROV1 ovarian and in the assay with K-562 leukemia was over 875 µM each time. The TGI in the assay with KM12 colon, in the assay with MALME-3M melanoma, in the assay with MCF7 breast, in the assay with NCI-H460 lung, in the assay on NCI-H522 lung and in the assay on NCI/ADR-RES ovarian was over 875 µM each time. In addition, the TGI in the assay with OVCAR-3 ovarian, in the assay with OVCAR-4 ovarian, with OVCAR-8 ovarian, in the assay with RPMI-8226 leukemia, in the assay with SF-268 CNS and in the assay with SF-295 CNS was over 875 µM each time. Besides, the TGI with SW-620 colon and with T-47D breast was over 875 µM each time.
`CC(=O)Oc1ccc2c(c1)c1c(=O)oc(C)nc1n2Cc1ccccc1`: the TGI with CCRF-CEM leukemia, in the assay with EKVX NSCLC, in the assay with HL-60(TB) leukemia, in the assay with HOP-92 NSCLC, with IGROV1 ovarian and in the assay with K-562 leukemia was over 100 µM throughout. The TGI with KM12 colon was over 100 µM; in the assay with MALME-3M melanoma, over 100 µM; in the assay with MCF7 breast it was over 100 µM; in the assay with NCI-H460 lung, over 100 µM; in the assay on NCI-H522 lung it was 60.5 µM; in the assay with NCI/ADR-RES ovarian it was over 100 µM. Also, the TGI in the assay with OVCAR-3 ovarian, in the assay with OVCAR-4 ovarian, with OVCAR-8 ovarian, in the assay with RPMI-8226 leukemia, with SF-268 CNS and in the assay on SF-295 CNS was over 100 µM throughout. The TGI with SW-620 colon and with T-47D breast was over 100 µM in each case.
Take `CC1=CCC(C)=Nc2nc3ccccc3n21`: the TGI in the assay with CCRF-CEM leukemia, in the assay with EKVX NSCLC, in the assay with HL-60(TB) leukemia, in the assay with HOP-92 NSCLC, in the assay with IGROV1 ovarian and in the assay with K-562 leukemia was over 100 µM each time. The TGI with KM12 colon, in the assay with MALME-3M melanoma, with MCF7 breast, in the assay with NCI-H460 lung, in the assay on NCI-H522 lung and in the assay on NCI/ADR-RES ovarian was over 100 µM throughout. Further, the TGI with OVCAR-3 ovarian, in the assay with OVCAR-4 ovarian, in the assay with OVCAR-8 ovarian, with RPMI-8226 leukemia, in the assay with SF-268 CNS and with SF-295 CNS was over 100 µM in each case. Moreover, the TGI with SW-620 colon and with T-47D breast was over 100 µM throughout.
On to `O=C1c2cccc3cccc(c23)C(=O)N1CCCNCCCNCCCCNCCCNCCCN1C(=O)c2cccc3cccc(c23)C1=O`, for which the TGI in the assay with CCRF-CEM leukemia amounted to 3.29 µM; in the assay on EKVX NSCLC it was 22 µM; with HL-60(TB) leukemia, 4.64 µM; with HOP-92 NSCLC it was 22 µM; in the assay on IGROV1 ovarian, 24.5 µM; in the assay with K-562 leukemia it was 16.5 µM. The TGI was determined as 13.9 µM in the assay with KM12 colon; 7.03 µM in the assay with MALME-3M melanoma; 1.61 µM with MCF7 breast; 14.1 µM with NCI-H460 lung; 32.6 µM in the assay with NCI-H522 lung; 46.8 µM in the assay on NCI/ADR-RES ovarian. Also, the TGI is 19.6 µM in the assay on OVCAR-3 ovarian; 19.1 µM in the assay with OVCAR-4 ovarian; 40 µM with OVCAR-8 ovarian; over 34 µM in the assay with RPMI-8226 leukemia; 12.9 µM in the assay on SF-268 CNS; 24.4 µM in the assay on SF-295 CNS. Further, the TGI in the assay with SW-620 colon was 14.9 µM; in the assay with T-47D breast, 47 µM.
For `COc1cccc2cc(C(=O)O)c(=O)oc12`, the TGI in the assay with CCRF-CEM leukemia, in the assay with EKVX NSCLC, in the assay with HL-60(TB) leukemia, with HOP-92 NSCLC, in the assay with IGROV1 ovarian and in the assay on K-562 leukemia was over 100 µM throughout. The TGI with KM12 colon, in the assay with MALME-3M melanoma, with MCF7 breast, in the assay with NCI-H460 lung, in the assay with NCI-H522 lung and with NCI/ADR-RES ovarian was over 100 µM in each case. The TGI with OVCAR-3 ovarian, with OVCAR-4 ovarian, in the assay on OVCAR-8 ovarian, in the assay on RPMI-8226 leukemia, in the assay on SF-268 CNS and with SF-295 CNS was over 100 µM throughout. Moreover, the TGI in the assay on SW-620 colon and in the assay with T-47D breast was over 100 µM throughout.
Consider `Cc1ccc(-c2n[nH]c(=O)n2/N=C\c2ccc([N+](=O)[O-])cc2)cc1`, for which the TGI in the assay on CCRF-CEM leukemia was over 100 µM; with EKVX NSCLC, over 100 µM; in the assay on HL-60(TB) leukemia, 97.6 µM; in the assay on HOP-92 NSCLC, over 100 µM; in the assay on IGROV1 ovarian it was over 100 µM; in the assay with K-562 leukemia it was over 94.2 µM. Besides, the TGI with KM12 colon, in the assay on MALME-3M melanoma, in the assay with MCF7 breast, in the assay with NCI-H460 lung, in the assay on NCI-H522 lung and in the assay on NCI/ADR-RES ovarian was over 100 µM throughout. Besides, the TGI in the assay on OVCAR-3 ovarian, in the assay on OVCAR-4 ovarian, in the assay with OVCAR-8 ovarian, in the assay on RPMI-8226 leukemia, in the assay on SF-268 CNS and with SF-295 CNS was over 100 µM in each case. Moreover, the TGI in the assay with SW-620 colon and with T-47D breast was over 100 µM throughout.

The record behind these values is PubChem BioAssay (NCI).
